# Assay results taken from ChEMBL document CHEMBL1136143, “Synthesis and activity of novel benzoxazole derivatives of mannopeptimycin glycopeptide antibiotics” (2003).
# How the values were obtained:
# Assay type in all cases: functional
# Enterococcus sp. = assay: In vitro minimum inhibitory concentration against Enterococcus species (11 strains, including VRE)
# Staphylococcus aureus [1] = assay: In vitro minimum inhibitory concentration against Staphylococcus aureus
# Enterococcus faecium [2] = assay: In vitro minimum inhibitory concentration against vancomycin-resistant Enterococcus faecium (GC 2243)
# Enterococcus faecium [3] = assay: In vitro minimum inhibitory concentration against vancomycin-resistant Enterococcus faecium (GC 4558)
# Enterococcus faecium [4] = assay: In vitro minimum inhibitory concentration against vancomycin-susceptible Enterococcus faecium (GC 4556)
# Enterococcus faecium [5] = assay: In vitro minimum inhibitory concentration against vancomycin-susceptible Enterococcus faecium (GC 4557)
# Enterococcus faecalis [6] = assay: In vitro minimum inhibitory concentration against vancomycin-susceptible Enterococcus faecalis (GC 4555)
# Enterococcus faecalis [7] = assay: In vitro minimum inhibitory concentration against vancomycin-resistant Enterococcus faecalis (GC 2242)
# Enterococcus faecalis [8] = assay: In vitro minimum inhibitory concentration against vancomycin-resistant Enterococcus faecalis (GC 3059)
# Enterococcus faecalis [9] = assay: In vitro minimum inhibitory concentration against vancomycin-resistant Enterococcus faecalis (GC 6189)
# Enterococcus faecalis [10] = assay: In vitro minimum inhibitory concentration against vancomycin-susceptible Enterococcus faecalis (GC 2691)
# Enterococcus faecalis [11] = assay: In vitro minimum inhibitory concentration against vancomycin-susceptible Enterococcus faecalis (GC 4552)
# Enterococcus faecalis [12] = assay: In vitro minimum inhibitory concentration against vancomycin-susceptible Enterococcus faecalis (GC 4553)
# Micrococcus luteus = assay: In vitro minimum inhibitory concentration against Micrococcus lutea (GC 4562)
# Staphylococcus aureus [13] = assay: In vitro minimum inhibitory concentration against Staphylococcus aureus (10strains, including MRSA)
# Streptococcus agalactiae = assay: In vitro minimum inhibitory concentration against Streptococcus agalactiae (GC4564)
# Staphylococcus aureus [14] = assay: In vitro minimum inhibitory concentration against Methicillin-resistant Staphylococcus aureus (GC 1131)
# Staphylococcus aureus [15] = assay: In vitro minimum inhibitory concentration against Methicillin-resistant Staphylococcus aureus (GC 4542)
# Staphylococcus aureus [16] = assay: In vitro minimum inhibitory concentration against Methicillin-resistant Staphylococcus aureus(GC 4541)
# Staphylococcus aureus [17] = assay: In vitro minimum inhibitory concentration against Methicillin-susceptible Staphylococcus aureus (GC 2216)
# Staphylococcus aureus [18] = assay: In vitro minimum inhibitory concentration against Methicillin-susceptible Staphylococcus aureus (GC 4543)
# Staphylococcus aureus [19] = assay: In vitro minimum inhibitory concentration against Methicillin-susceptible Staphylococcus aureus(GC 4544)
# Staphylococcus aureus [20] = assay: In vitro minimum inhibitory concentration against glycopeptide tntermediate Staphylococcus aureus (GC 3051)
# Staphylococcus aureus [21] = assay: In vitro minimum inhibitory concentration against glycopeptide tntermediate Staphylococcus aureus (GC 3066)
# [22] = tested on: Staphylococcus haemolyticus; assay: In vitro minimum inhibitory concentration against methicillin-resistant Coagulase-negative Staphylococci (MRCNS) (GC 4546)
# [23] = tested on: Staphylococcus haemolyticus; assay: In vitro minimum inhibitory concentration against methicillin-resistant Coagulase-negative Staphylococci (MRCNS) (GC 4547)
# Streptococcus pneumoniae [24] = assay: In vitro minimum inhibitory concentration against Penicillin resistant Streptococcus pneumoniae (GC 1894)
# Streptococcus pneumoniae [25] = assay: In vitro minimum inhibitory concentration against Penicillin susceptible Streptococcus pneumoniae (GC 4565)
# Streptococcus pneumoniae [26] = assay: In vitro minimum inhibitory concentration against Penicillin susceptible Streptococcus pneumoniae (GC 6242)
# [27] = tested on: Staphylococcus haemolyticus; assay: In vitro minimum inhibitory concentration against methicillin-resistant Coagulase-negative Staphylococci (MRCNS) (GC 4548)
# Streptococcus pyogenes = assay: In vitro minimum inhibitory concentration against Streptococcus pyogenes (GC 4563)
# [28] = tested on: Staphylococcus haemolyticus; assay: In vitro minimum inhibitory concentration against methicillin-susceptible Coagulase-negative Staphylococci (MSCNS) (GC 4549)
# [29] = tested on: Staphylococcus haemolyticus; assay: In vitro minimum inhibitory concentration against methicillin-susceptible Coagulase-negative Staphylococci (MSCNS) (GC 4551)
# [30] = tested on: Staphylococcus haemolyticus; assay: In vitro minimum inhibitory concentration against methicillin-susceptible Coagulase-negative Staphylococci (MSCNS) (GC 6257)
# Streptococcus = assay: In vitro minimum inhibitory concentration against Streptococcus Species (5 strains, including PRSP)
# Bacillus cereus = assay: In vitro minimum inhibitory concentration against Bacillus cereus (GC 4561) assay organism
# Staphylococcus aureus [31] = assay: In vitro minimum inhibitory concentration against Methicillin-susceptible Staphylococcus aureus(GC 4545)
# Enterococcus faecalis [32] = assay: In vitro minimum inhibitory concentration against vancomycin-susceptible Enterococcus faecalis (GC 4554)
structure (smiles),measurement,setting,value
C[C@@H](c1ccccc1)[C@@H]1NC(=O)CNC(=O)[C@H](CO)NC(=O)[C@@H]([C@@H](O)[C@@H]2CN=C(N)N2[C@H]2O[C@H](CO)[C@@H](O)[C@H](O)[C@@H]2O)NC(=O)[C@H]([C@H](O)[C@@H]2CN=C(N)N2)NC(=O)[C@@H](Cc2ccc(O)cc2)NC1=O,MIC,Enterococcus sp.,32 µg/mL
same,MIC,Staphylococcus aureus [1],64 µg/mL
CCN1CCN(C(=O)N[C@@H](C(=O)N[C@@H]2C(=O)N3[C@@H]2SC(C)(C)[C@@H]3C(=O)O)c2ccccc2)C(=O)C1=O [PIPERACILLIN],MIC,Enterococcus sp.,0.25 µg/mL
same,MIC,Enterococcus faecium [2],64 µg/mL
same,MIC,Enterococcus faecium [3],> 64 µg/mL
same,MIC,Enterococcus faecium [4],1 µg/mL
same,MIC,Enterococcus faecium [5],0.12 µg/mL
same,MIC,Enterococcus faecalis [6],1 µg/mL
same,MIC,Enterococcus faecalis [7],2 µg/mL
same,MIC,Enterococcus faecalis [8],2 µg/mL
same,MIC,Enterococcus faecalis [9],2 µg/mL
same,MIC,Enterococcus faecalis [10],2 µg/mL
same,MIC,Enterococcus faecalis [11],2 µg/mL
same,MIC,Enterococcus faecalis [12],> 64 µg/mL
same,MIC,Micrococcus luteus,< 0.06 µg/mL
same,MIC,Staphylococcus aureus [13],0.5 µg/mL
same,MIC,Streptococcus agalactiae,0.12 µg/mL
same,MIC,Staphylococcus aureus [14],> 64 µg/mL
same,MIC,Staphylococcus aureus [15],64 µg/mL
same,MIC,Staphylococcus aureus [16],> 64 µg/mL
same,MIC,Staphylococcus aureus [17],4 µg/mL
same,MIC,Staphylococcus aureus [18],1 µg/mL
same,MIC,Staphylococcus aureus [19],4 µg/mL
same,MIC,Staphylococcus aureus [20],64 µg/mL
same,MIC,Staphylococcus aureus [21],0.5 µg/mL
same,MIC,[22],> 64 µg/mL
same,MIC,[23],> 64 µg/mL
same,MIC,Streptococcus pneumoniae [24],2 µg/mL
same,MIC,Streptococcus pneumoniae [25],< 0.006 µg/mL
same,MIC,Streptococcus pneumoniae [26],< 0.06 µg/mL
same,MIC,[27],16 µg/mL
same,MIC,Streptococcus pyogenes,< 0.006 µg/mL
same,MIC,[28],32 µg/mL
same,MIC,[29],4 µg/mL
same,MIC,[30],4 µg/mL
same,MIC,Streptococcus,< 0.12 µg/mL
same,MIC,Bacillus cereus,1 µg/mL
same,MIC,Staphylococcus aureus [31],8 µg/mL
same,MIC,Enterococcus faecalis [32],1 µg/mL
